EPA's CvTdb concentration-time database

Assays:
Assay in all cases: concentration in plasma after dosing
Rat [1] = conditions: dosed: Bromochloroacetic acid, 40 mg/kg, oral, Female, Harlan Sprague Dawley
Rat [2] = conditions: dosed: Bromochloroacetic acid, 40 mg/kg, oral, Female, Harlan Sprague Dawley; remark: listed apart in the source
Rat [3] = conditions: dosed: Bromochloroacetic acid, 10 mg/kg, oral, Male, Harlan Sprague Dawley
Rat [4] = conditions: dosed: Bromochloroacetic acid, 40 mg/kg, oral, Female, Harlan Sprague Dawley; remark: listed apart in the source
Rat [5] = conditions: dosed: Bromochloroacetic acid, 10 mg/kg, oral, Male, Harlan Sprague Dawley; remark: listed apart in the source
Rat [6] = conditions: 20 min; dosed: Bromochloroacetic acid; 10 mg/kg; oral; Male; Harlan Sprague Dawley
Rat [7] = conditions: dosed: Bromochloroacetic acid, 40 mg/kg, oral, Female, Harlan Sprague Dawley; remark: listed apart in the source
Rat [8] = conditions: dosed: Bromochloroacetic acid, 40 mg/kg, oral, Female, Harlan Sprague Dawley; remark: listed apart in the source
Rat [9] = conditions: dosed: Bromochloroacetic acid, 10 mg/kg, oral, Male, Harlan Sprague Dawley; remark: listed apart in the source
Rat [10] = conditions: dosed: Bromochloroacetic acid, 10 mg/kg, oral, Male, Harlan Sprague Dawley; remark: listed apart in the source
Rat [11] = conditions: 20 min; dosed: Bromochloroacetic acid; 10 mg/kg; oral; Male; Harlan Sprague Dawley; remark: listed apart in the source
Rat [12] = conditions: dosed: Bromochloroacetic acid, 40 mg/kg, oral, Female, Harlan Sprague Dawley; remark: listed apart in the source
Rat [13] = conditions: dosed: Bromochloroacetic acid, 10 mg/kg, oral, Male, Harlan Sprague Dawley; remark: listed apart in the source
Rat [14] = conditions: dosed: Bromochloroacetic acid, 10 mg/kg, oral, Male, Harlan Sprague Dawley; remark: listed apart in the source
Rat [15] = conditions: dosed: Bromochloroacetic acid, 10 mg/kg, oral, Male, Harlan Sprague Dawley; remark: listed apart in the source
Rat [16] = conditions: dosed: Bromochloroacetic acid, 40 mg/kg, oral, Female, Harlan Sprague Dawley; remark: listed apart in the source
Rat [17] = conditions: dosed: Bromochloroacetic acid, 10 mg/kg, oral, Male, Harlan Sprague Dawley; remark: listed apart in the source
Rat [18] = conditions: dosed: Bromochloroacetic acid, 10 mg/kg, oral, Male, Harlan Sprague Dawley; remark: listed apart in the source
Rat [19] = conditions: 0.75 h; dosed: Bromochloroacetic acid; 40 mg/kg; oral; Female; Harlan Sprague Dawley
Rat [20] = conditions: dosed: Bromochloroacetic acid, 40 mg/kg, oral, Female, Harlan Sprague Dawley; remark: listed apart in the source
Rat [21] = conditions: dosed: Bromochloroacetic acid, 10 mg/kg, oral, Male, Harlan Sprague Dawley; remark: listed apart in the source
Rat [22] = conditions: dosed: Bromochloroacetic acid, 40 mg/kg, oral, Female, Harlan Sprague Dawley; remark: listed apart in the source
Rat [23] = conditions: 0.25 h; dosed: Bromochloroacetic acid; 10 mg/kg; oral; Male; Harlan Sprague Dawley
Rat [24] = conditions: dosed: Bromochloroacetic acid, 40 mg/kg, oral, Female, Harlan Sprague Dawley; remark: listed apart in the source
Rat [25] = conditions: dosed: Bromochloroacetic acid, 40 mg/kg, oral, Female, Harlan Sprague Dawley; remark: listed apart in the source
Rat [26] = conditions: dosed: Bromochloroacetic acid, 40 mg/kg, oral, Female, Harlan Sprague Dawley; remark: listed apart in the source
Rat [27] = conditions: dosed: Bromochloroacetic acid, 10 mg/kg, oral, Male, Harlan Sprague Dawley; remark: listed apart in the source

O=C(O)C(Cl)Br (stereo not given) [Bromochloroacetic acid]
Conditions | concentration in plasma [ng/mL]
Rat [1], 3 h | 1990
Rat [1], 4 h | 3160
Rat [2], 1 h | 5710
Rat [2], 2 min | 984
Rat [3], 1 h | 224
Rat [3], 5 min | 362
Rat [4], 4 h | 2010
Rat [4], 20 min | 3310
Rat [5], 1 h | 201
Rat [5], 5 min | 210
Rat [7], 1 h | 7660
Rat [7], 2 min | 536
Rat [8], 1 h | 9330
Rat [8], 2 min | 564
Rat [9], 1 h | 196
Rat [9], 5 min | 423
Rat [10], 0.75 h | 283
Rat [10], 2 min | 71.7
Rat [12], 1 h | 8650
Rat [12], 2 min | 484
Rat [13], 1.5 h | 155
Rat [13], 10 min | 322
Rat [14], 0.75 h | 284
Rat [14], 2 min | 80.1
Rat [15], 0.75 h | 485
Rat [15], 2 min | 216
Rat [16], 1.5 h | 5290
Rat [16], 5 min | 1440
Rat [17], 1 h | 299
Rat [17], 5 min | 383
Rat [18], 0.25 h | 727
Rat [18], 2 h | 136
Rat [20], 6 h | 201
Rat [20], 20 min | 5740
Rat [21], 0.25 h | 545
Rat [21], 3 h | 88.7
Rat [22], 0.25 h | 5810
Rat [22], 3 h | 2170
Rat [24], 1 h | 7500
Rat [24], 2 min | 396
Rat [25], 1.5 h | 4490
Rat [25], 5 min | 2540
Rat [26], 1.5 h | 7410
Rat [26], 5 min | 4130
Rat [27], 1.5 h | 96.2
Rat [27], 10 min | 241

Conditions | concentration in plasma [ng/mL]
Rat [6] | 521
Rat [11] | 508
Rat [19] | 11800
Rat [23] | 576
